Test results taken from PubChem BioAssay (NCI).
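GI50: concentration for 50% inhibition of growth. TGI denotes the concentration required for complete inhibition of growth.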

What was measured:
Test in all cases: inhibition of tumour cell growth, NCI panel, 384-well format
A498 renal = tested on: A498 renal
SF-268 CNS = tested on: SF-268 CNS
CCRF-CEM leukemia = tested on: CCRF-CEM leukemia
NCI/ADR-RES ovarian = tested on: NCI/ADR-RES ovarian
OVCAR-4 ovarian = tested on: OVCAR-4 ovarian
OVCAR-3 ovarian = tested on: OVCAR-3 ovarian
SNB-19 CNS = tested on: SNB-19 CNS
K-562 leukemia = tested on: K-562 leukemia
KM12 colon = tested on: KM12 colon
HCC-2998 colon = tested on: HCC-2998 colon
NCI-H322M lung = tested on: NCI-H322M lung
CAKI-1 renal = tested on: CAKI-1 renal
UACC-257 melanoma = tested on: UACC-257 melanoma
RPMI-8226 leukemia = tested on: RPMI-8226 leukemia
MOLT-4 leukemia = tested on: MOLT-4 leukemia
NCI-H522 lung = tested on: NCI-H522 lung
SW-620 colon = tested on: SW-620 colon
OVCAR-8 ovarian = tested on: OVCAR-8 ovarian
NCI-H226 lung = tested on: NCI-H226 lung
SF-295 CNS = tested on: SF-295 CNS
SF-539 CNS = tested on: SF-539 CNS
ACHN renal = tested on: ACHN renal
M14 melanoma = tested on: M14 melanoma
SK-MEL-2 melanoma = tested on: SK-MEL-2 melanoma
A549 NSCLC = tested on: A549 NSCLC
HOP-62 NSCLC = tested on: HOP-62 NSCLC
UO-31 renal = tested on: UO-31 renal
PC-3 prostate = tested on: PC-3 prostate
OVCAR-5 ovarian = tested on: OVCAR-5 ovarian
MDA-MB-435 melanoma = tested on: MDA-MB-435 melanoma
DU-145 prostate = tested on: DU-145 prostate
HOP-92 NSCLC = tested on: HOP-92 NSCLC
UACC-62 melanoma = tested on: UACC-62 melanoma
RXF 393 renal = tested on: RXF 393 renal
U251 glioblastoma = tested on: U251 glioblastoma
BT-549 breast = tested on: BT-549 breast
MDA-MB-231 breast = tested on: MDA-MB-231 breast
SN12C renal = tested on: SN12C renal
786-0 renal = tested on: 786-0 renal
IGROV1 ovarian = tested on: IGROV1 ovarian
HCT-116 colon = tested on: HCT-116 colon
MALME-3M melanoma = tested on: MALME-3M melanoma
NCI-H23 lung = tested on: NCI-H23 lung
T-47D breast = tested on: T-47D breast
LOX IMVI melanoma = tested on: LOX IMVI melanoma
SK-OV-3 ovarian = tested on: SK-OV-3 ovarian
TK-10 renal = tested on: TK-10 renal
HT29 colon = tested on: HT29 colon
SK-MEL-28 melanoma = tested on: SK-MEL-28 melanoma
HL-60(TB) leukemia = tested on: HL-60(TB) leukemia
MCF7 breast = tested on: MCF7 breast
SK-MEL-5 melanoma = tested on: SK-MEL-5 melanoma
COLO 205 colon = tested on: COLO 205 colon
SR leukemia = tested on: SR leukemia
HCT-15 colon = tested on: HCT-15 colon
MDA-MB-468 breast = tested on: MDA-MB-468 breast
NCI-H460 NSCLC = tested on: NCI-H460 NSCLC

Cc1[nH]c(/C=C2\C(=O)Nc3ccc(S(=O)(=O)Cc4c(Cl)cccc4Cl)cc32)c(C)c1C(=O)N1CCC[C@@H]1CN1CCCC1
GI50 (A498 renal): 1630 nM
TGI (A498 renal): 2990 nM
GI50 (SF-268 CNS): 1460 nM
TGI (SF-268 CNS): 2780 nM
GI50 (CCRF-CEM leukemia): 681 nM
TGI (CCRF-CEM leukemia): 1900 nM
GI50 (NCI/ADR-RES ovarian): 1890 nM
TGI (NCI/ADR-RES ovarian): 3360 nM
GI50 (OVCAR-4 ovarian): 1740 nM
TGI (OVCAR-4 ovarian): 3130 nM
GI50 (OVCAR-3 ovarian): 1890 nM
TGI (OVCAR-3 ovarian): 3310 nM
GI50 (SNB-19 CNS): 1940 nM
TGI (SNB-19 CNS): 3360 nM
GI50 (K-562 leukemia): 1720 nM
TGI (K-562 leukemia): 3100 nM
GI50 (KM12 colon): 445 nM
TGI (KM12 colon): 1500 nM
GI50 (HCC-2998 colon): 1990 nM
TGI (HCC-2998 colon): 3420 nM
GI50 (NCI-H322M lung): 1750 nM
TGI (NCI-H322M lung): 3150 nM
GI50 (CAKI-1 renal): 1530 nM
TGI (CAKI-1 renal): 2860 nM
GI50 (UACC-257 melanoma): 1420 nM
TGI (UACC-257 melanoma): 2730 nM
GI50 (RPMI-8226 leukemia): 1250 nM
TGI (RPMI-8226 leukemia): 2500 nM
GI50 (MOLT-4 leukemia): 573 nM
TGI (MOLT-4 leukemia): 1730 nM
GI50 (NCI-H522 lung): 1980 nM
TGI (NCI-H522 lung): 3400 nM
GI50 (SW-620 colon): 1760 nM
TGI (SW-620 colon): 3160 nM
GI50 (OVCAR-8 ovarian): 1680 nM
TGI (OVCAR-8 ovarian): 3060 nM
GI50 (NCI-H226 lung): 1930 nM
TGI (NCI-H226 lung): 3340 nM
GI50 (SF-295 CNS): 1320 nM
TGI (SF-295 CNS): 2590 nM
GI50 (SF-539 CNS): 1740 nM
TGI (SF-539 CNS): 3120 nM
GI50 (ACHN renal): 1600 nM
TGI (ACHN renal): 2950 nM
GI50 (M14 melanoma): 1740 nM
TGI (M14 melanoma): 3120 nM
GI50 (SK-MEL-2 melanoma): 1240 nM
TGI (SK-MEL-2 melanoma): 2490 nM
GI50 (A549 NSCLC): 1710 nM
TGI (A549 NSCLC): 3100 nM
GI50 (HOP-62 NSCLC): 1850 nM
TGI (HOP-62 NSCLC): 3250 nM
GI50 (UO-31 renal): 1690 nM
TGI (UO-31 renal): 3070 nM
GI50 (PC-3 prostate): 1720 nM
TGI (PC-3 prostate): 3110 nM
GI50 (OVCAR-5 ovarian): 1930 nM
TGI (OVCAR-5 ovarian): 3370 nM
GI50 (MDA-MB-435 melanoma): 1760 nM
TGI (MDA-MB-435 melanoma): 3150 nM
GI50 (DU-145 prostate): 1850 nM
TGI (DU-145 prostate): 3250 nM
GI50 (HOP-92 NSCLC): 1880 nM
TGI (HOP-92 NSCLC): 3290 nM
GI50 (UACC-62 melanoma): 1060 nM
TGI (UACC-62 melanoma): 2250 nM
GI50 (RXF 393 renal): 1650 nM
TGI (RXF 393 renal): 3010 nM
GI50 (U251 glioblastoma): 1810 nM
TGI (U251 glioblastoma): 3220 nM
GI50 (BT-549 breast): 1560 nM
TGI (BT-549 breast): 2900 nM
GI50 (MDA-MB-231 breast): 1670 nM
TGI (MDA-MB-231 breast): 3040 nM
GI50 (SN12C renal): 1500 nM
TGI (SN12C renal): 2830 nM
GI50 ([…]-0 renal): 1440 nM
TGI (786-0 renal): 2750 nM
GI50 (IGROV1 ovarian): 1710 nM
TGI (IGROV1 ovarian): 3100 nM
GI50 (HCT-116 colon): 1560 nM
TGI (HCT-116 colon): 2910 nM
GI50 (MALME-3M melanoma): 1720 nM
TGI (MALME-3M melanoma): 3100 nM
GI50 (NCI-H23 lung): 1020 nM
TGI (NCI-H23 lung): 6680 nM
GI50 (T-47D breast): 1740 nM
TGI (T-47D breast): 3120 nM
GI50 (LOX IMVI melanoma): 2020 nM
TGI (LOX IMVI melanoma): 3460 nM
GI50 (SK-OV-3 ovarian): 1340 nM
TGI (SK-OV-3 ovarian): 2630 nM
GI50 (TK-10 renal): 1820 nM
TGI (TK-10 renal): 3220 nM
GI50 (HT29 colon): 1780 nM
TGI (HT29 colon): 3180 nM
GI50 (SK-MEL-28 melanoma): 1750 nM
TGI (SK-MEL-28 melanoma): 3130 nM
GI50 (HL-60(TB) leukemia): 2110 nM
TGI (HL-60(TB) leukemia): 3540 nM
GI50 (MCF7 breast): 1750 nM
TGI (MCF7 breast): 3130 nM
GI50 (SK-MEL-5 melanoma): 1190 nM
TGI (SK-MEL-5 melanoma): 2430 nM
GI50 (COLO 205 colon): 1720 nM
TGI (COLO 205 colon): 3100 nM
GI50 (SR leukemia): 1310 nM
TGI (SR leukemia): 2590 nM
GI50 (HCT-15 colon): 1820 nM
TGI (HCT-15 colon): 3230 nM
GI50 (MDA-MB-468 breast): 1580 nM
TGI (MDA-MB-468 breast): 2930 nM
GI50 (NCI-H460 NSCLC): 1340 nM
TGI (NCI-H460 NSCLC): 2630 nM
